# Laboratory results: the supplement of paper PMC10307832
# Legend:
# Experiment in all cases: relative viability (nuclei count vs DMSO), 5 days (fraction); higher = more cells survive
# [1] = compound: CN(c1ncccc1CNc1nc(Nc2ccc3c(c2)CC(=O)N3)ncc1C(F)(F)F)S(C)(=O)=O
# Procedure, shortened: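 Vehicle-anchored 1536-well plates of lung cancer cell lines, held overnight at 37 °C, were pinned with five library-drug doses (not always all listed) spaced by √10. No medium change followed over the next 5 days, after which the cells were fixed, permeabilised and Hoechst-stained together and imaged at 4×. Nuclei were counted with MetaXpress, and viability is treated-well nuclei over vehicle-well nuclei, taken as a median across plates. Plates passed with control CV below 25% and at least one doubling.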
# [2] = compound: CN(c1ncccc1CNc1nc(Nc2ccc3c(c2)CC(=O)N3)ncc1C(F)(F)F)S(C)(=O)=O + Cc1cc(Nc2cc(N3CCN(C)CC3)nc(Sc3ccc(NC(=O)C4CC4)cc3)n2)n[nH]1 [Tozasertib] (partner 0.1 µM)
# Procedure, shortened: (§1)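 For relative viability, nuclei counts in treated wells were divided by those in vehicle wells. Lung cancer cell lines had been pin-tool dosed in 1536-well plates the day after seeding and cultured for 5 days, then fixed and stained in one step (final 0.05% Triton X-100, 1% formaldehyde, 1 ug/ml Hoechst) and imaged at 4×. Doses were one drug alone or a fixed anchor-drug dose plus five library-drug doses (not always all listed) in √10 steps, and values are duplicate-plate medians.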
# [3] = compound: CN(c1ncccc1CNc1nc(Nc2ccc3c(c2)CC(=O)N3)ncc1C(F)(F)F)S(C)(=O)=O + Nc1nc2[nH]cc(CCc3ccc(C(=O)N[C@@H](CCC(=O)O)C(=O)O)cc3)c2c(=O)[nH]1 [Pemetrexed] (partner 0.2 µM)
# Procedure, shortened: as §1
# [4] = compound: CN(c1ncccc1CNc1nc(Nc2ccc3c(c2)CC(=O)N3)ncc1C(F)(F)F)S(C)(=O)=O + CC(=O)c1c(C)c2cnc(Nc3ccc(N4CCNCC4)cn3)nc2n(C2CCCC2)c1=O [Palbociclib] (partner 0.5 µM)
# Procedure, shortened: as §1
# [5] = compound: CN(c1ncccc1CNc1nc(Nc2ccc3c(c2)CC(=O)N3)ncc1C(F)(F)F)S(C)(=O)=O + Cc1nc(Nc2ncc(C(=O)Nc3c(C)cccc3Cl)s2)cc(N2CCN(CCO)CC2)n1 [Dasatinib] (partner 0.075 µM)
# Procedure, shortened: as §1
# [6] = compound: CN(c1ncccc1CNc1nc(Nc2ccc3c(c2)CC(=O)N3)ncc1C(F)(F)F)S(C)(=O)=O + O=C(c1cc(Cc2n[nH]c(=O)c3ccccc23)ccc1F)N1CCN(C(=O)C2CC2)CC1 [Olaparib] (partner 8 µM)
# Procedure, shortened: as §1
# [7] = compound: CN(c1ncccc1CNc1nc(Nc2ccc3c(c2)CC(=O)N3)ncc1C(F)(F)F)S(C)(=O)=O + CCNC(=O)c1noc(-c2cc(C(C)C)c(O)cc2O)c1-c1ccc(CN2CCOCC2)cc1 [Luminespib] (partner 0.01 µM)
# Procedure, shortened: as §1
# [8] = compound: CN(c1ncccc1CNc1nc(Nc2ccc3c(c2)CC(=O)N3)ncc1C(F)(F)F)S(C)(=O)=O + Nc1ncn([C@H]2C[C@H](O)[C@@H](CO)O2)c(=O)n1 [Decitabine] (partner 2 µM)
# Procedure, shortened: as §1
# [9] = compound: CN(c1ncccc1CNc1nc(Nc2ccc3c(c2)CC(=O)N3)ncc1C(F)(F)F)S(C)(=O)=O + COc1cccc2cc(-c3nc([C@H]4CC[C@H](C(=O)O)CC4)n4ncnc(N)c34)[nH]c12 [OSI-027] (partner 0.5 µM)
# Procedure, shortened: as §1
# [10] = compound: CN(c1ncccc1CNc1nc(Nc2ccc3c(c2)CC(=O)N3)ncc1C(F)(F)F)S(C)(=O)=O + N=C(N)NC(=N)NCCc1ccccc1 [Phenformin] (partner 250 µM)
# Procedure, shortened: as §1
# [11] = compound: CN(c1ncccc1CNc1nc(Nc2ccc3c(c2)CC(=O)N3)ncc1C(F)(F)F)S(C)(=O)=O + NC(=O)Nc1cc(-c2cccc(F)c2)sc1C(=O)N[C@H]1CCCNC1 [AZD7762] (partner 0.2 µM)
# Procedure, shortened: as §1
# [12] = compound: CN(c1ncccc1CNc1nc(Nc2ccc3c(c2)CC(=O)N3)ncc1C(F)(F)F)S(C)(=O)=O + O=C(CCCCCCC(=O)Nc1ccccc1)NO [Vorinostat] (partner 1 µM)
# Procedure, shortened: as §1
# [13] = compound: CN(c1ncccc1CNc1nc(Nc2ccc3c(c2)CC(=O)N3)ncc1C(F)(F)F)S(C)(=O)=O + CC(=O)Nc1cccc(-n2c(=O)n(C3CC3)c(=O)c3c(Nc4ccc(I)cc4F)n(C)c(=O)c(C)c32)c1 [Trametinib] (partner 0.02 µM)
# Procedure, shortened: as §1
# [14] = compound: CN(c1ncccc1CNc1nc(Nc2ccc3c(c2)CC(=O)N3)ncc1C(F)(F)F)S(C)(=O)=O + COc1cc2c(Oc3ccc(NC(=O)C4(C(=O)Nc5ccc(F)cc5)CC4)cc3F)ccnc2cc1OCCCN1CCOCC1 [Foretinib] (partner 0.25 µM)
# Procedure, shortened: as §1
# [15] = compound: CN(c1ncccc1CNc1nc(Nc2ccc3c(c2)CC(=O)N3)ncc1C(F)(F)F)S(C)(=O)=O + CS(=O)(=O)N1CCN(Cc2cc3nc(-c4cccc5[nH]ncc45)nc(N4CCOCC4)c3s2)CC1 [Pictilisib] (partner 1 µM)
# Procedure, shortened: as §1
# [16] = compound: CN(c1ncccc1CNc1nc(Nc2ccc3c(c2)CC(=O)N3)ncc1C(F)(F)F)S(C)(=O)=O + CS(=O)(=O)CCNCc1ccc(-c2ccc3ncnc(Nc4ccc(OCc5cccc(F)c5)c(Cl)c4)c3c2)o1 [Lapatinib] (partner 2 µM)
# Procedure, shortened: as §1
# [17] = compound: CN(c1ncccc1CNc1nc(Nc2ccc3c(c2)CC(=O)N3)ncc1C(F)(F)F)S(C)(=O)=O + C[C@]1(O)C[C@@H](c2nc(-c3ccc4ccc(-c5ccccc5)nc4c3)c3c(N)nccn32)C1 [Linsitinib] (partner 1 µM)
# Procedure, shortened: as §1
# [18] = compound: CN(c1ncccc1CNc1nc(Nc2ccc3c(c2)CC(=O)N3)ncc1C(F)(F)F)S(C)(=O)=O + C[C@@H](Oc1cc(-c2cnn(C3CCNCC3)c2)cnc1N)c1c(Cl)ccc(F)c1Cl [Crizotinib] (partner 1 µM)
# Procedure, shortened: as §1
# [19] = compound: CN(c1ncccc1CNc1nc(Nc2ccc3c(c2)CC(=O)N3)ncc1C(F)(F)F)S(C)(=O)=O + CC(C)C[C@H](NC(=O)[C@H](Cc1ccccc1)NC(=O)c1cnccn1)B(O)O [Bortezomib] (partner 0.002 µM)
# Procedure, shortened: as §1
# [20] = compound: CN(c1ncccc1CNc1nc(Nc2ccc3c(c2)CC(=O)N3)ncc1C(F)(F)F)S(C)(=O)=O + Cc1nc(NC(=O)N2CCC[C@H]2C(N)=O)sc1-c1ccnc(C(C)(C)C(F)(F)F)c1 [Alpelisib] (partner 2 µM)
# Procedure, shortened: as §1
# [21] = compound: CN(c1ncccc1CNc1nc(Nc2ccc3c(c2)CC(=O)N3)ncc1C(F)(F)F)S(C)(=O)=O + CC1(C)CCC(c2ccc(Cl)cc2)=C(CN2CCN(c3ccc(C(=O)NS(=O)(=O)c4ccc(N[C@H](CCN5CCOCC5)CSc5ccccc5)c(S(=O)(=O)C(F)(F)F)c4)cc3)CC2)C1 [Navitoclax] (partner 0.5 µM)
# Procedure, shortened: as §1
cell line,measurement,setting,value
NCI-H522,relative viability,[1]; 0.01 µM,0.916
same,relative viability,[1]; 0.03162 µM,0.918
same,relative viability,[1]; 0.1 µM,0.996
same,relative viability,[1]; 0.3162 µM,1
same,relative viability,[1]; 1 µM,1.02
same,relative viability,[2]; first compound 0.01 µM,0.542
same,relative viability,[2]; first compound 0.03162 µM,0.447
same,relative viability,[2]; first compound 0.1 µM,0.469
same,relative viability,[2]; first compound 0.3162 µM,0.511
same,relative viability,[2]; first compound 1 µM,0.61
same,relative viability,[3]; first compound 0.01 µM,1.21
same,relative viability,[3]; first compound 0.03162 µM,0.923
same,relative viability,[3]; first compound 0.1 µM,1.03
same,relative viability,[3]; first compound 0.3162 µM,0.899
same,relative viability,[3]; first compound 1 µM,1.06
same,relative viability,[4]; first compound 0.01 µM,1.06
same,relative viability,[4]; first compound 0.03162 µM,1.01
same,relative viability,[4]; first compound 0.1 µM,1.08
same,relative viability,[4]; first compound 0.3162 µM,1.15
same,relative viability,[4]; first compound 1 µM,0.752
same,relative viability,[5]; first compound 0.01 µM,0.889
same,relative viability,[5]; first compound 0.03162 µM,0.832
same,relative viability,[5]; first compound 0.1 µM,0.95
same,relative viability,[5]; first compound 0.3162 µM,0.725
same,relative viability,[5]; first compound 1 µM,0.979
same,relative viability,[6]; first compound 0.01 µM,0.55
same,relative viability,[6]; first compound 0.03162 µM,0.594
same,relative viability,[6]; first compound 0.1 µM,0.575
same,relative viability,[6]; first compound 0.3162 µM,0.693
same,relative viability,[6]; first compound 1 µM,0.763
same,relative viability,[7]; first compound 0.01 µM,1.17
same,relative viability,[7]; first compound 0.03162 µM,1.2
same,relative viability,[7]; first compound 0.1 µM,1.17
same,relative viability,[7]; first compound 0.3162 µM,1.14
same,relative viability,[7]; first compound 1 µM,1.15
same,relative viability,[8]; first compound 0.01 µM,0.553
same,relative viability,[8]; first compound 0.03162 µM,0.685
same,relative viability,[8]; first compound 0.1 µM,0.649
same,relative viability,[8]; first compound 0.3162 µM,0.644
same,relative viability,[8]; first compound 1 µM,0.637
same,relative viability,[9]; first compound 0.01 µM,0.717
same,relative viability,[9]; first compound 0.03162 µM,0.703
same,relative viability,[9]; first compound 0.1 µM,0.726
same,relative viability,[9]; first compound 0.3162 µM,0.742
same,relative viability,[9]; first compound 1 µM,0.798
same,relative viability,[10]; first compound 0.01 µM,0.664
same,relative viability,[10]; first compound 0.03162 µM,0.645
same,relative viability,[10]; first compound 0.1 µM,0.629
same,relative viability,[10]; first compound 0.3162 µM,0.819
same,relative viability,[10]; first compound 1 µM,0.696
same,relative viability,[11]; first compound 0.01 µM,0.798
same,relative viability,[11]; first compound 0.03162 µM,0.979
same,relative viability,[11]; first compound 0.1 µM,0.737
same,relative viability,[11]; first compound 0.3162 µM,0.87
same,relative viability,[11]; first compound 1 µM,0.764
same,relative viability,[12]; first compound 0.01 µM,0.906
same,relative viability,[12]; first compound 0.03162 µM,1.06
same,relative viability,[12]; first compound 0.1 µM,0.919
same,relative viability,[12]; first compound 0.3162 µM,0.973
same,relative viability,[12]; first compound 1 µM,0.961
same,relative viability,[13]; first compound 0.01 µM,0.73
same,relative viability,[13]; first compound 0.03162 µM,0.813
same,relative viability,[13]; first compound 0.1 µM,0.698
same,relative viability,[13]; first compound 0.3162 µM,0.812
same,relative viability,[13]; first compound 1 µM,0.705
NCI-H1299,relative viability,[1]; 0.01 µM,1.02
same,relative viability,[1]; 0.03162 µM,1.04
same,relative viability,[1]; 0.1 µM,1.04
same,relative viability,[1]; 0.3162 µM,0.986
same,relative viability,[1]; 1 µM,1.01
same,relative viability,[14]; first compound 0.01 µM,1.12
same,relative viability,[14]; first compound 0.03162 µM,1.1
same,relative viability,[14]; first compound 0.1 µM,1.05
same,relative viability,[14]; first compound 0.3162 µM,1.09
same,relative viability,[14]; first compound 1 µM,1.08
same,relative viability,[15]; first compound 0.01 µM,0.754
same,relative viability,[15]; first compound 0.03162 µM,0.768
same,relative viability,[15]; first compound 0.1 µM,0.809
same,relative viability,[15]; first compound 0.3162 µM,0.739
same,relative viability,[15]; first compound 1 µM,0.693
same,relative viability,[6]; first compound 0.01 µM,0.96
same,relative viability,[6]; first compound 0.03162 µM,1.04
same,relative viability,[6]; first compound 0.1 µM,0.991
same,relative viability,[6]; first compound 0.3162 µM,0.948
same,relative viability,[6]; first compound 1 µM,0.955
same,relative viability,[16]; first compound 0.01 µM,1.03
same,relative viability,[16]; first compound 0.03162 µM,0.949
same,relative viability,[16]; first compound 0.1 µM,1
same,relative viability,[16]; first compound 0.3162 µM,0.988
same,relative viability,[16]; first compound 1 µM,0.972
same,relative viability,[17]; first compound 0.01 µM,1.06
same,relative viability,[17]; first compound 0.03162 µM,1.05
same,relative viability,[17]; first compound 0.1 µM,0.961
same,relative viability,[17]; first compound 0.3162 µM,0.976
same,relative viability,[17]; first compound 1 µM,0.986
same,relative viability,[18]; first compound 0.01 µM,0.989
same,relative viability,[18]; first compound 0.03162 µM,1.02
same,relative viability,[18]; first compound 0.1 µM,0.979
same,relative viability,[18]; first compound 0.3162 µM,0.995
same,relative viability,[18]; first compound 1 µM,0.955
same,relative viability,[19]; first compound 0.01 µM,1.05
same,relative viability,[19]; first compound 0.03162 µM,1.01
same,relative viability,[19]; first compound 0.1 µM,1.04
same,relative viability,[19]; first compound 0.3162 µM,0.996
same,relative viability,[19]; first compound 1 µM,1.02
same,relative viability,[20]; first compound 0.01 µM,1.05
same,relative viability,[20]; first compound 0.03162 µM,1.02
same,relative viability,[20]; first compound 0.1 µM,1.01
same,relative viability,[20]; first compound 0.3162 µM,1.04
same,relative viability,[20]; first compound 1 µM,1.05
same,relative viability,[21]; first compound 0.01 µM,1.04
same,relative viability,[21]; first compound 0.03162 µM,1.05
same,relative viability,[21]; first compound 0.1 µM,1.06
same,relative viability,[21]; first compound 0.3162 µM,1.07
same,relative viability,[21]; first compound 1 µM,1.04
